{"source": "paper PMC11311998", "about": "“AR71, Histamine H3 Receptor Ligand—In Vitro and In Vivo Evaluation (Anti-Inflammatory Activity, Metabolic Stability, Toxicity, and Analgesic Action)” (International Journal of Molecular Sciences, 2024)", "key": {"SH-SY5Y cells [1]": {"system": "SH-SY5Y cells", "assay": "mitochondrial membrane potential (JC-10)", "format": "cell-based, human", "conditions": "0.78 μM", "protocol": "Neurotoxin-like rotenone induces oxidative stress inside cells that might influence mitochondrial membrane potential (MMP). Maintaining unaffected MMP is essential for neuroprotection. In our study, we tested the effect of AR71 on MMP in the presence and absence of rotenone.\nNext, the effect of AR71 (0.78 μM) when co-treated with rotenone was tested; 1 μM carbonyl cyanide m-chlorophenylhydrazone (CCCP) was used as a positive control.\nThe MMP was measured by a commercially available kit (Sigma Aldrich, MAK159, for live cells) that utilises a cationic, lipophilic dye JC-10. It allows for ratiometric analysis of mitochondrial membrane potential, where a shift from orange (λEX/λEM: 540 nm/590 nm) to green fluorescence (λEX/λEM: 490 nm/525 nm) is indicative of compromised mitochondria. For this assay, the SH-SY5Y cells (1 × 10^4 cells/well) were seeded in a black-sided clear bottom 96-well plate (Thermo Scientific Nunclon^TM Delta Surface no. 137101, Denmark) in a complete culture medium. First, to choose the optimal concentration of rotenone in this assay, a dose–response effect of rotenone (0.05, 0.5, 5, 50 μM) was studied. Next, the cells were pre-treated with AR71 (0.78 μM) for 1 h before rotenone stimulation (50 μM) for another 3 h. […] The positive control was carbonyl cyanide m-chlorophenylhydrazone (CCCP; 1 μM)—uncoupling agent on the proton gradient. After incubation, 50 μL/well of the JC-10 dye loading solution was added to each well with cells. The plate was incubated for 45 min in the incubator. Then, 50 μL/well of Assay Buffer B was added to each well, and the fluorescence was monitored immediately. The red/green fluorescence intensity ratio was used to calculate the results."}, "CCI-exposed mice [2]": {"system": "CCI-exposed mice", "assay": "tail flick test in CCI neuropathic pain model", "format": "in vivo, mouse", "conditions": "20 mg/kg i.p.", "protocol": "(§1) The effects of a single intraperitoneal (i.p.) injection of AR71 at doses of 5, 10, and 20 mg/kg on mechanical (von Frey test) and thermal (cold plate and tail flick tests) stimulus were evaluated on day 14 following sciatic nerve injury (Figure 15). There were seven to eight animals per group. All these tests were performed in three time series after the administration of the compound. In the case of the von Frey test—after 30, 90, and 180 min; the cold plate test—after 35, 95, and 185 min; and the tail flick test—after 40, 100, and 190 min.\nThe mice were randomly divided into four experimental groups. One group received a vehicle treatment (10% DMSO/10%(2-Hydroxypropyl)-β-cyclodextrin/water for injection, i.p.), while the other three groups were administered with AR71 at doses of 5, 10, or 20 mg/kg of body weight (b.w.), i.p. Baseline measurements for all tests were conducted before the compounds were injected, and the results are presented as percentages of the maximal possible effect (% MPE). […] All data from behavioural tests were analysed using a one-way ANOVA with Bonferroni’s multiple comparison post hoc test. […]\nTail flick latency was measured on the dorsal part of the tail at two-thirds of its length by applying a focused beam of light (thermal stimulus). The time interval between the thermal stimulus’s onset and the tail’s withdrawal from the beam was recorded. […]"}, "CCI-exposed mice [3]": {"system": "CCI-exposed mice", "assay": "von Frey test in CCI neuropathic pain model", "format": "in vivo, mouse", "protocol": "as §1\nThe mice were randomly divided into four experimental groups. One group received a vehicle treatment (10% DMSO/10%(2-Hydroxypropyl)-β-cyclodextrin/water for injection, i.p.), while the other three groups were administered with AR71 at doses of 5, 10, or 20 mg/kg of body weight (b.w.), i.p. Baseline measurements for all tests were conducted before the compounds were injected, and the results are presented as percentages of the maximal possible effect (% MPE). […] All data from behavioural tests were analysed using a one-way ANOVA with Bonferroni’s multiple comparison post hoc test.\nThe model of chronic constriction injury (CCI) to the sciatic nerve was established according to Bennett and Xie. The surgical method was performed under isoflurate anaesthesia (2% isoflurane in 100% oxygen with a flow of 1.5 L/min). Below the right hipbone, a small incision was performed, and three ligatures (4/0 silk) around the sciatic nerve were made (with 1 mm spacing) until a brief twitch in the respective hind limb was observed. The CCI procedure leads to hypersensitivity to mechanical and thermal stimuli. Behavioural tests were performed on day 14 after the injury. AR71 was dissolved in 10% DMSO/10% (2-Hydroxypropyl)-β-cyclodextrin/water for injection and was given i.p. at doses of 5, 10, and 20 mg/kg of body weight (injection volume 10 mL/kg of bw). The control group received the vehicle (10% DMSO/10% (2-Hydroxypropyl)-β-cyclodextrin/water for injection).\nBehavioural experiments were performed between 8:00 a.m. and 2:00 p.m. […]"}, "SH-SY5Y cells [4]": {"system": "SH-SY5Y cells", "assay": "cell number / growth, image cytometry", "format": "cell-based", "conditions": "Homo sapiens", "protocol": "To evaluate the growth dynamics of SH-SY5Y cells in the presence of AR71, neuroblastoma cells were treated with increasing concentrations (0.39–25 µM) of the compound tested for 24 or 72 h. Using image cytometry, we calculated the DNA content index as a 2N/4N DNA ratio to analyse the cell cycle distribution after 24 and 72 h of incubation with AR71.\nSH-SY5Y cells were initially seeded in 96-well plates at a density of 5000 cells per well in 120 μL of medium. After 24 h, the cells were exposed to different concentrations of AR71 for either 24 or 72 h. […] Subsequently, images of 16 fields per well were captured using the ArrayScan VTI HCS Reader from Thermo Fisher Scientific, Inc. (Thermo Fisher Scientific, Waltham, MA, USA), which was equipped with a 5× objective. The cell number was calculated as the sum of the Hoechst-33342-stained cell nuclei using Cell Cycle Bioapplication V3 software and expressed as a per cent of control. […] In the next step, a series of detailed images were acquired using the ArrayScan VTI HCS Reader equipped with a 10× objective to collect at least 500 nuclei/cells per replicate. The DNA cell content of single cells was analysed based on Hoechst-33342 fluorescence intensity of their nuclei using Cell Cycle Bioapplication V3 software and presented as the DNA 2N/4N ratio. […]"}}, "data": [{"molecule": "COc1cc(/C=C/C(=O)c2ccc(OCCCN3CCCCC3)cc2)cc(OC)c1OC", "note": "[AR71, (E)-3-(3,4,5-trimethoxyphenyl)-1-(4-(3-(piperidin-1-yl)propoxy)phenyl)prop-2-en-1-one]", "values": [{"measurement": "effect on MMP of compound alone", "setting": "SH-SY5Y cells [1]", "value": "did not affect mitochondrial membrane potential"}, {"measurement": "minimisation of loss of MMP compared with rotenone-treated cells", "setting": "SH-SY5Y cells [1]; 1 h pre-treatment, then rotenone 50 μM for 3 h", "value": 20, "unit": "%"}, {"measurement": "effect in tail flick test vs vehicle", "setting": "CCI-exposed mice [2]; 100 and 190 min (p < 0.001 and p < 0.01)", "value": "significant pain-relieving effects"}, {"measurement": "effect in tail flick test vs vehicle", "setting": "CCI-exposed mice [2]; 40 min post-injection, p < 0.05", "value": "significant analgesic effect"}, {"measurement": "effect in von Frey test vs vehicle", "setting": "CCI-exposed mice [3]; 10 mg/kg i.p., 30 min after injection, p < 0.05", "value": "significant pain-relieving effects"}, {"measurement": "effect in von Frey test vs vehicle", "setting": "CCI-exposed mice [3]; 20 mg/kg i.p., 90 and 180 min after injection (p < 0.001 and p < 0.01), lower doses not effective", "value": "increased withdrawal thresholds"}, {"measurement": "effect in von Frey test vs vehicle", "setting": "CCI-exposed mice [3]; 20 mg/kg i.p., 30 min after injection, p < 0.001", "value": "significant pain-relieving effects"}, {"measurement": "IC50", "setting": "SH-SY5Y cells [4]; 24 h incubation", "value": 8.46, "unit": "µM"}, {"measurement": "IC50", "setting": "SH-SY5Y cells [4]; 72 h incubation", "value": 3.19, "unit": "µM"}]}]}
